Assay results from publication PMC6249113 (ACS chemical neuroscience, 2018).

Experiments:
[1] = target: GluN1/2A NMDARs (Rattus norvegicus, UniProt P35439+Q00959); type: cell-based; details: 10 μM compound; 100 μM NMDA plus 10 μM glycine; voltage pulse to +60 mV
[2] = target: GluN1/2A receptors (Rattus norvegicus, UniProt P35439+Q00959); type: cell-based; details: for δ, fraction of the total transmembrane voltage field felt by the blocker at its binding site: calculated from V0 by Equation 4; for Hill coefficient (nH): tsA201 cells, GluN1/2A, 1 mM glutamate, −65 mV, fit of Equation 2; for V0, change in voltage that results in an e-fold change in the IC50: roughly twice the IC50 of each drug (3 μM 5, 5 μM 7, 2 μM 8, 1 μM 11), 9 voltages −105 to +55 mV, fit of Equation 3
Sequence of GluN1/2A receptors (Q00959 23-1464, other chains not shown): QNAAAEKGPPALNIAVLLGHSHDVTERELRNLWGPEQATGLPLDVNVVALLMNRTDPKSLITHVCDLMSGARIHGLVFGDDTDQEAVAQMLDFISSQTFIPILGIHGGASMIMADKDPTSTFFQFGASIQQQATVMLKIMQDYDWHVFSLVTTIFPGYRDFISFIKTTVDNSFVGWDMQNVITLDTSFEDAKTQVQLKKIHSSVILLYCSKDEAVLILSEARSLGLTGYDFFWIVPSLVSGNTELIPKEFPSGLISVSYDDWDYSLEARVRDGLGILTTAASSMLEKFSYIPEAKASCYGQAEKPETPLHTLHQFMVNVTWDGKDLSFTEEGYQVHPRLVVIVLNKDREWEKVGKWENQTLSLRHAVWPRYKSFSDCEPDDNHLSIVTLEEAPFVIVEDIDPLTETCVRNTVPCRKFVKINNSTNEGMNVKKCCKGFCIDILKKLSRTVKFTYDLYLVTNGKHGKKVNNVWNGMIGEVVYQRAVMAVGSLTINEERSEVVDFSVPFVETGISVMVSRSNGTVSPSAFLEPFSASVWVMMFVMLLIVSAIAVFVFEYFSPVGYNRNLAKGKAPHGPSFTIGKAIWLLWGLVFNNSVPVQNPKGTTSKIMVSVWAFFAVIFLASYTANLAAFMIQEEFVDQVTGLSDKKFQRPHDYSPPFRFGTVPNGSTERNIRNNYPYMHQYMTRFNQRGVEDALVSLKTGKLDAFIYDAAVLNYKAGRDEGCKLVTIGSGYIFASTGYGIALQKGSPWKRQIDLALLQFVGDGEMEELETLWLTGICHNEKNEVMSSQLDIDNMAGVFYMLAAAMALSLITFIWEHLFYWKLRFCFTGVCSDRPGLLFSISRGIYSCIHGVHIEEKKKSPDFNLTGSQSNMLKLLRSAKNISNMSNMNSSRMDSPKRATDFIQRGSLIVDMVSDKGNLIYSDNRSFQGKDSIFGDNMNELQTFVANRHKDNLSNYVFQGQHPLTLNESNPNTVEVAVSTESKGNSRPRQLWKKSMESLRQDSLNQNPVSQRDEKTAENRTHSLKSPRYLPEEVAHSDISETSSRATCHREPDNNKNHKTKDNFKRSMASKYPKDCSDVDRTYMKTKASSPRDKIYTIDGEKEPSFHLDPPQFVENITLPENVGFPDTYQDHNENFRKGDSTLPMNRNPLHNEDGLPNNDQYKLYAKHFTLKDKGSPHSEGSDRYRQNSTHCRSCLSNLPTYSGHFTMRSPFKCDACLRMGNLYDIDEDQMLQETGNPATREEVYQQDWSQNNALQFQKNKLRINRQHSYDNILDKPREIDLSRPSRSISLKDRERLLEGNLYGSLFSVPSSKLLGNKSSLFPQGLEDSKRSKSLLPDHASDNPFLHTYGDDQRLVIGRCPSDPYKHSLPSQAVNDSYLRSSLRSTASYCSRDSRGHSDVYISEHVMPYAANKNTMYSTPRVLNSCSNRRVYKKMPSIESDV

Sequence of GluN1/2A NMDARs (Q00959 23-1464, other chains not shown): as above

CC12CC3CC(C)(C1)CC(N)(C3)C2 [Compound 5, memantine, reference compound]
percentage block at +60 mV [1]: 8.1 ± 4.0%
IC50 [2]: 1.84 ± 0.39 µM
δ, fraction of the total transmembrane voltage field felt by the blocker at its binding site [2]: 0.91 ± 0.08
Hill coefficient (nH) [2]: 1.07 ± 0.27

CC12CC3CC1(C)C1(C)CC3(CN)CC21C.Cl [Compound 8, (3,4,8,9-Tetramethyltetracydo[4.4.0.0^3,9.0^4,8]dec-1-yl)methylamine hydrochloride]
percentage block at +60 mV [1]: 14.7 ± 4.5%
δ, fraction of the total transmembrane voltage field felt by the blocker at its binding site [2]: 0.87 ± 0.05
V0, change in voltage that results in an e-fold change in the IC50 [2]: 29.9 ± 1.9 mV
Hill coefficient (nH) [2]: 1.01 ± 0.11

CC12CC3CC1(C)C1(C)CC3(N)CC21C.Cl [Compound 7, (3,4,8,9-Tetramethyltetracydo[4.4.0.0^3,9.0^4,8]dec-1-yl)amme hydrochloride]
percentage block at +60 mV [1]: 2.4 ± 5.1%
δ, fraction of the total transmembrane voltage field felt by the blocker at its binding site [2]: 0.99 ± 0.05
V0, change in voltage that results in an e-fold change in the IC50 [2]: 26.5 ± 1.8 mV
Hill coefficient (nH) [2]: 0.98 ± 0.08
